Measurements reported in patent US20140127228A1 (INDIANA UNIVERSITY SCHOOL OF MEDICINE, priority 2012, published 2014).
Entries after “also recorded” stand apart in the source; their conditions may differ.

Assays:
human melanoma cells = assay: Hfg treatment of human melanoma cells; type: cell-based
From the text: (§1) TGFbeta derived from bone fuels melanoma bone metastasis by inducing tumor secretion of pro-metastatic factors that act on bone cells to change the skeletal microenvironment. […] Hfg is active orally and by intraperitoneal injection, and it has completed Phase I clinical trials in cancer patients. It suppresses the phosphorylation and activation of Smad2 and Smad3 by inducting of Smad7. Overexpression of inhibitory Smad7 has been associated with a reduction on invasive capacity in vitro and anchorage-independent growth, and delays subcutaneous tumor growth in nude mice. The present inventors have shown that Smad7 overexpression decreased melanoma bone metastasis, thus is useful for treating and/or preventing muscle weakness and atrophy as well as other muscle related side effects in cancer patients.

[1] = models of muscular dystrophy; cited from earlier work
1205Lu melanoma cells [2] = assay: melanoma bone metastasis in nude mice inoculated with 1205Lu melanoma cells; type: in vivo, mouse
From the text: Halofuginone (Hfg) is a synthetic derivative of the plant alkaloid febrifugine, a traditional Chinese herbal medicine. Hfg increases expression of Smad7, an intracellular inhibitor of TGF-beta signaling. […] Hfg has been widely used as a veterinary agent with an excellent safety profile.
as §1

1205Lu melanoma cells [3] = conditions: mouse, in vivo; cited from earlier work
PC-3 bone metastases = assay: PC-3 prostate cancer bone metastases in mice; type: in vivo, mouse; conditions: 50 mg/kg starting 2 days prior to inoculation
From the text: (§2) These experiments utilize two murine models of prostate cancer bone metastases induced by PC-3 (osteolytic and cachectic; FIGS. 4A-K) or LuCAP23.1 (osteoblastic and not cachectic; FIGS. 5A-B).
(§3) For all mouse experiments, N=15 for each group of mice for tumors inoculated in the left cardiac ventricle (PC-3) or intratibially (LuCAP23.1) based on power analysis detailed below. Male nude mice are housed in laminar flow isolated hoods with water supplemented with vitamin K and autoclaved mouse chow provided ad libitum. Cells are introduced into mice at 4 wks of age. Animals are anesthetized with ketamine/xylazine and positioned ventral side up.
Multiple modalities of bone imaging including X-ray and μCT are used to longitudinally monitor the bone lesions and confirmed by histology and quantitative histomorphometry as previously described (Dunn et al., 2009; Guise et al., 1996b; Yin et al., 1999). Muscle mass are followed serially in vivo using the Piximus II system (Wiren et al., 2011) and microCT (Manske et al., 2011).

SERCA = SERCA oxidation in EDL muscle lysates (immunoprecipitation/immunoblot); type: in vivo, mouse; conditions: prostate cancer mice
From the text: (§4) In embodiment A is shown that body weight is decreased in nude mice inoculated with PC-3 human prostate cancer cells and that osteolytic lesions are present in the tibia and histology of the femur, as shown in X-ray images. In embodiments B and C are shown decreased skeletal muscle cross-sectional area in tumor-bearing mice determined by Micro-CT as described herein. In embodiments D and E are shown decreased body weight (D) and decreased Grip strength (E) in PC-3 tumor bearing mice. […] In embodiment J is shown that RyR1 is oxidized and there is decreased calstabin 1 in the RyR complex from, skeletal muscle (EDL) from mice with metastatic prostate cancer. RyR1 was immunoprecipitated from 250 μg of EDL homogenate using an anti-RyR antibody (4 μg 5029 Ab), and the immunoprecipitates were separated on SDS-PAGE gels (6% for RyR, 15% for Calstabin). All immunoblots were developed and quantified with the Odyssey system (LI-COR, Inc., Lincoln, Nebr.) using IR labeled anti-mouse and anti-Rabbit IgG (1:10,000 dilution) secondary antibodies. Immunoblots developed using anti-RyR (clone 34C, 1:5,000), anti-Cys-NO (1:1000, Sigma, St. Louis. MO), anti-DNP (to determine RyR1 oxidation. 1:250), and anticalstabin (1:2500). […] Quantification of immunoblots showing the relative nitrotyrosine/SERCA for each group of EDLs tested. *p<0.01 compared to non-cancer controls as analyzed by ANOVA. […]

[4] = tested on: LuCaP 23.1 human prostate cancer osteoblastic xenograft; assay: LuCaP 23.1 osteoblastic prostate cancer xenograft in tibia of nude mice; type: in vivo, mouse
From the text: as §2, §3
Four-week old, male nude mice were inoculated into the tibia with LuCaP 23.1 human prostate cancer osteoblastic xenograft (n=14-15/group).

mouse mammary carcinomas = conditions: cited from earlier work
RyR1 = RyR1 oxidation, nitrosylation and calstabin 1 depletion in EDL (immunoprecipitation/immunoblot); type: in vivo, mouse; conditions: mice with PC-3 prostate cancer metastatic to bone
From the text: as §4, with “RyR1 was immunoprecipitated from 250 μg of EDL homogenate using an anti-RyR antibody (4 μg 5029 Ab), and the immunoprecipitates were separated on SDS-PAGE gels (6% for RyR, 15% for Calstabin).” left out, “antibodies.” for “antibodies. Immunoblots developed using anti-RyR (clone 34C, 1:5,000), anti-Cys-NO (1:1000, Sigma, St. Louis. MO), anti-DNP (to determine RyR1 oxidation. 1:250), and anticalstabin (1:2500).”
Quantification of RyR1 skeletal channel nitrosylation, oxidation and phosphorylation by protein kinase A (PKA) are performed as described (Bellinger et al., 2009; Bellinger et al., 2008b).
Quantification of depletion of the channel stabilizing subunit calstabin 1 (FKBP12) from skeletal RyR1 by immunoprecipitation techniques are performed as described (Marx et al., 2000). […]

[5] = tested on: EDL muscle of mice with PC-3 prostate cancer bone metastases; assay: EDL muscle specific force production in mice with PC-3 prostate cancer bone metastases; type: in vivo, mouse; conditions: hypogonadal mice with PC-3 prostate cancer metastatic to bone
From the text: as §4, with “RyR1 was immunoprecipitated from 250 μg of EDL homogenate using an anti-RyR antibody (4 μg 5029 Ab), and the immunoprecipitates were separated on SDS-PAGE gels (6% for RyR, 15% for Calstabin).” left out, “antibodies.” for “antibodies. Immunoblots developed using anti-RyR (clone 34C, 1:5,000), anti-Cys-NO (1:1000, Sigma, St. Louis. MO), anti-DNP (to determine RyR1 oxidation. 1:250), and anticalstabin (1:2500).”
Extensor digitorum longus (EDL) muscles are dissected from the hind limbs using micro dissection scissors and forceps. […] To quantify the specific force, the absolute force is normalized to the muscle cross-sectional area, calculated as the muscle weight divided by the length and a muscle density constant of […] as previously described (Yamada et al., 2009).

[6] = patients with prostate cancer bone metastases; cited from earlier work
[7] = 50 or 150 mg/kg/day po from 12 weeks post tumor inoculation

O=C(CC1NCCCC1O)Cn1cnc2cc(Br)c(Cl)cc2c1=O (stereo not shown) [Halofuginone]
TGFbeta-induced SMAD-driven transcription (human melanoma cells): inhibited | cell apoptosis (human melanoma cells): increased | cell proliferation (human melanoma cells): inhibited | expression of TGFbeta target genes (PTHrP, CTGF, CXCR4, IL11) (human melanoma cells): reducing expression | phosphorylation of SMAD proteins in response to TGFbeta (human melanoma cells): inhibited | muscle function [1]: improve muscle function | osteolysis assessed by radiography (1205Lu melanoma cells [2]; mice with established bone metastasis, vs placebo): significantly less osteolysis | melanoma metastasis to the brain (1205Lu melanoma cells [2]; mouse, in vivo): reduce melanoma metastasis to the brain | bone metastasis (1205Lu melanoma cells [2]; preventive protocol, nude mice inoculated with 1205Lu melanoma cells): inhibited bone metastasis | development and progression of bone metastasis caused by melanoma cells (1205Lu melanoma cells [3]): decreases development and progression of bone metastasis

Fc1ccc(Cl)cc1-c1nc(Nc2ccncc2)c2nccnc2n1 [SD-208]
PC-3 bone metastases (X-ray, osteolytic lesion area, survival) (PC-3 bone metastases): highly effective; also recorded: prevents PC-3 bone metastases | oxidation of SERCA (SERCA): inhibited oxidation of SERCA | bone formation [4, 7]: does not increase | tumor growth [4, 7]: does not increase | LuCAP23.1 bone metastases ([4]; mouse, in vivo): not effective | tumor growth in vivo (mouse mammary carcinomas): inhibit | oxidation/nitrosylation/calstabin 1 depletion of skeletal muscle RyR1 (RyR1): prevented oxidation/nitrosylation/calstabin 1 depletion from RyR1; also recorded: prevented oxidation of RyR1 | muscle (EDL) specific force production [5]: improved muscle specific force production

denosumab: inhibitor of bone resorption
skeletal morbidity [6]: reduce skeletal morbidity
